SMILES strings stand for the structures.

The values below come from patent publication US20210395239A1 (Hoffmann-La Roche Inc., priority 2018, published 2021).

This assay addresses T1, human TLR7 (Homo sapiens, UniProt Q9NYK1).
T1 construct: host or cells: HEK293 (HEK-Blue hTLR7)
T1 sequence (Q9NYK1 27-1049): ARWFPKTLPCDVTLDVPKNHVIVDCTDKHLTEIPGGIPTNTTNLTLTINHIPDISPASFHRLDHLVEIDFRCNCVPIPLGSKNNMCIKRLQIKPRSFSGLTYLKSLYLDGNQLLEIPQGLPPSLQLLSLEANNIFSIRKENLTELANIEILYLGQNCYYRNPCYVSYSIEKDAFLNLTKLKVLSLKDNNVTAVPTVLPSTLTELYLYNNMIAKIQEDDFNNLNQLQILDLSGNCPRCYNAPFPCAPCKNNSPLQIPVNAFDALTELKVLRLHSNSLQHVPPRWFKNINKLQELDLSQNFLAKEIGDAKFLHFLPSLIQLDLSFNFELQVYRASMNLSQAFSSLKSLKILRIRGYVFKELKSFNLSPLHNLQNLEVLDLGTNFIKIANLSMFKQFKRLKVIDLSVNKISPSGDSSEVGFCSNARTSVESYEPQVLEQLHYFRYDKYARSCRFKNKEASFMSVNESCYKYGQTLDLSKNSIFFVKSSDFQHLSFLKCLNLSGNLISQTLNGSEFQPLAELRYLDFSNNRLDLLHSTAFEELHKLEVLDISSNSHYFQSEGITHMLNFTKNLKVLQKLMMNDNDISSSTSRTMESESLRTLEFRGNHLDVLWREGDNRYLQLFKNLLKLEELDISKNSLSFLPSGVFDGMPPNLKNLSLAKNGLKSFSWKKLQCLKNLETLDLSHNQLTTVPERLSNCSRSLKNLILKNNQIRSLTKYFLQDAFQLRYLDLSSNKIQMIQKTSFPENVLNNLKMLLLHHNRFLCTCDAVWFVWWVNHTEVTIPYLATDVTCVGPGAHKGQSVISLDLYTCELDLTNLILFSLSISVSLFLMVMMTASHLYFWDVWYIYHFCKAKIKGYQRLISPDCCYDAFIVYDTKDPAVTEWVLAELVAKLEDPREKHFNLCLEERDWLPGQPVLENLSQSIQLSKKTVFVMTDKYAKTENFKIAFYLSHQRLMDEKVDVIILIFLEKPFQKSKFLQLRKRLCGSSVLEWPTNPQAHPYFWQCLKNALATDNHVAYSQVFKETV
The assay can be described thus: HEK293-Blue-hTLR-7 cells assay (SEAP reporter, R848 stimulation). Particulars: HEK293-Blue-hTLR7 cells, R848, 20 hrs; read-out: HEK/hTLR7 IC50. In kind it is cell-based. The essentials:
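HEK293-Blue-hTLR7 cells (NF-κB/AP-1-driven SEAP reporter) were stimulated with R848 alongside serially diluted compound at 1% final DMSO for 20 h at 37 °C. Supernatant SEAP was then developed with QUANTI-Blue for 2 h at 37 °C and absorbance read at 620–655 nm; antagonism is measured as reduced reporter signal.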
`Cc1cc(N2CCN(C[C@H]3CN(c4ccc(C#N)c5ncccc45)C[C@@H](C)O3)CC2)nc(N2C[C@H](N)C[C@H](F)C2)n1` (relative stereo) [Example 74, 5-[(2R,6S)-2-methyl-6-[[4-[6-methyl-2-[cis-3-amino-5-fluoro-1-piperidyl]pyrimidin-4-yl]piperazin-1-yl]methyl]morpholin-4-yl]quinoline-8-carbonitrile]: the IC50 is 24 nM.

In the case of `Cc1cc(N2CCN(C[C@H]3CN(c4ccc(C#N)c5ncccc45)C[C@@H](C)O3)CC2)nc(N2C[C@H](N)C[C@@H](F)C2)n1` (relative stereo) [Example 75, 5-[(2R,6S)-2-methyl-6-[[4-[6-methyl-2-[trans-3-amino-5-fluoro-1-piperidyl]pyrimidin-4-yl]piperazin-1-yl]methyl]morpholin-4-yl]quinoline-8-carbonitrile], the IC50 is 25 nM.

For `CO[C@H]1CN(c2nc(C)cc(N3CCN(C[C@H]4CN(c5ccc(C#N)c6ncccc56)C[C@@H](C)O4)CC3)n2)C[C@@H]1N` (single isomer, unassigned) [Example 69A], the IC50 amounted to 11 nM.

Consider `CO[C@@H]1CN(c2nc(C)cc(N3CCN(C[C@H]4CN(c5ccc(C#N)c6ncccc56)C[C@@H](C)O4)CC3)n2)C[C@H]1N` (single isomer, unassigned) [Example 69B], for which the IC50 is 7 nM.

Consider `Cc1cc(N2CCN(C[C@H]3CN(c4ccc(C#N)c5ncccc45)C[C@@H](C)O3)CC2)nc(N2CC[C@@H](F)C(N)C2)n1` (single isomer, unassigned) [Example 84], for which the IC50 came out at 10 nM.

In the case of `COC1CN(c2nc(C)cc(N3CCN(C[C@H]4CN(c5ccc(C#N)c6ncccc56)C[C@@H](C)O4)CC3)n2)CC1N` (single isomer, unassigned) [Example 88], the IC50 turned out to be 21 nM.

`COC1CNCC1Nc1nc(C)cc(N2CCN(C[C@H]3CN(c4ccc(C#N)c5ncccc45)C[C@@H](C)O3)CC2)n1` (stereo in doubt) [Example 70, 5-[(2S,6R)-2-[[4-[2-[[(3R,4R)-4-methoxypyrrolidin-3-yl]amino]-6-methyl-pyrimidin-4-yl]piperazin-1-yl]methyl]-6-methyl-morpholin-4-yl]quinoline-8-carbonitrile]: the IC50 was determined as 70 nM.

Turning to `Cc1cc(N2CCN(C[C@H]3CN(c4ccc(C#N)c5ncccc45)C[C@@H](C)O3)CC2)nc(NC2CNCC2F)n1` (stereo in doubt) [Example 73, 5-[(2S,6R)-2-[[4-[2-[[(3S,4R)-4-fluoropyrrolidin-3-yl]amino]-6-methyl-pyrimidin-4-yl]piperazin-1-yl]methyl]-6-methyl-morpholin-4-yl]quinoline-8-carbonitrile], the IC50 was 49 nM.

For `Cc1cc(N2CCN(C[C@H]3CN(c4ccc(C#N)c5ncccc45)C[C@@H](C)O3)CC2)nc(N2CC[C@@H](N)C(F)C2)n1` (stereo in doubt) [Example 82, 5-[(2S,6R)-2-[[4-[2-[(3R,4R)-4-amino-3-fluoro-1-piperidyl]-6-methyl-pyrimidin-4-yl]piperazin-1-yl]methyl]-6-methyl-morpholin-4-yl]quinoline-8-carbonitrile], the IC50 stood at 29 nM.

Regarding `CO[C@H]1CN(c2nc(C)cc(N3CCN(C[C@H]4CN(c5ccc(C#N)c6ncccc56)C[C@@H](C)O4)CC3)n2)CCC1N` (stereo in doubt) [Example 90, 5-[(2S,6R)-2-[[4-[2-[(3S,4S)-4-amino-3-methoxy-1-piperidyl]-6-methyl-pyrimidin-4-yl]piperazin-1-yl]methyl]-6-methyl-morpholin-4-yl]quinoline-8-carbonitrile], the IC50 stood at 21 nM.

Consider `Cc1cc(N2CCN(C[C@H]3CN(c4ccc(C#N)c5ncccc45)C[C@@H](C)O3)CC2)nc(N[C@@H]2CNC[C@@H]2F)n1` [Example 71, 5-[(2S,6R)-2-[[4-[2-[[(3R,4S)-4-fluoropyrrolidin-3-yl]amino]-6-methyl-pyrimidin-4-yl]piperazin-1-yl]methyl]-6-methyl-morpholin-4-yl]quinoline-8-carbonitrile], for which the IC50 was 45 nM.

As to `CO[C@@H]1CN(c2nc(C)cc(N3CCN(C[C@H]4CN(c5ccc(C#N)c6ncccc56)C[C@@H](C)O4)CC3)n2)C[C@@H]1N` [Example 72, 5-[(2S,6R)-2-[[4-[2-[(3S,4R)-3-amino-4-methoxy-pyrrolidin-1-yl]-6-methyl-pyrimidin-4-yl]piperazin-1-yl]methyl]-6-methyl-morpholin-4-yl]quinoline-8-carbonitrile], the IC50 stood at 6 nM.

Regarding `Cc1cc(N2CCN(C[C@H]3CN(c4ccc(C#N)c5ncccc45)C[C@@H](C)O3)CC2)nc(N[C@@H]2CNC[C@H]2F)n1` [Example 76, 5-[(2S,6R)-2-[[4-[2-[[(3R,4R)-4-fluoropyrrolidin-3-yl]amino]-6-methyl-pyrimidin-4-yl]piperazin-1-yl]methyl]-6-methyl-morpholin-4-yl]quinoline-8-carbonitrile], the IC50 was found to be 20 nM.

Consider `Cc1cc(N2CCN(C[C@H]3CN(c4ccc(C#N)c5ncccc45)C[C@@H](C)O3)CC2)nc(N2C[C@@H](N)C[C@@H](F)C2)n1` [Example 77, 5-[(2S,6R)-2-[[4-[2-[(3S,5R)-3-amino-5-fluoro-1-piperidyl]-6-methyl-pyrimidin-4-yl]piperazin-1-yl]methyl]-6-methyl-morpholin-4-yl]quinoline-8-carbonitrile], for which the IC50 was 26 nM.

With `Cc1cc(N2CCN(C[C@H]3CN(c4ccc(C#N)c5ncccc45)C[C@@H](C)O3)CC2)nc(N2CC[C@@H](N)[C@@H](F)C2)n1` [Example 78, 5-[(2S,6R)-2-[[4-[2-[(3S,4R)-4-amino-3-fluoro-1-piperidyl]-6-methyl-pyrimidin-4-yl]piperazin-1-yl]methyl]-6-methyl-morpholin-4-yl]quinoline-8-carbonitrile], the IC50 was found to be 20 nM.

As for `Cc1cc(N2CCN(C[C@H]3CN(c4ccc(C#N)c5ncccc45)C[C@@H](C)O3)CC2)nc(N2C[C@@H](N)[C@H](F)C2)n1` [Example 79, 5-[(2S,6R)-2-[[4-[2-[(3R,4R)-3-amino-4-fluoro-pyrrolidin-1-yl]-6-methyl-pyrimidin-4-yl]piperazin-1-yl]methyl]-6-methyl-morpholin-4-yl]quinoline-8-carbonitrile], the IC50 is 21 nM.

For the compound `Cc1cc(N2CCN(C[C@H]3CN(c4ccc(C#N)c5ncccc45)C[C@@H](C)O3)CC2)nc(N2CC(N)CC(F)(F)C2)n1` (stereo partly drawn) [Example 80, 5-[(2S,6R)-2-[[4-[2-(5-amino-3,3-difluoro-1-piperidyl)-6-methyl-pyrimidin-4-yl]piperazin-1-yl]methyl]-6-methyl-morpholin-4-yl]quinoline-8-carbonitrile], the IC50 came out at 107 nM.

Take `Cc1cc(N2CCN(C[C@H]3CN(c4ccc(C#N)c5ncccc45)C[C@@H](C)O3)CC2)nc(N2CCNC(C(C)(C)O)C2)n1` (stereo partly drawn) [Example 81, 5-[(2S,6R)-2-[[4-[2-[3-(1-hydroxy-1-methyl-ethyl)piperazin-1-yl]-6-methyl-pyrimidin-4-yl]piperazin-1-yl]methyl]-6-methyl-morpholin-4-yl]quinoline-8-carbonitrile]: the IC50 is 22 nM.

On to `Cc1cc(N2CCN(C[C@H]3CN(c4ccc(C#N)c5ncccc45)C[C@@H](C)O3)CC2)nc(N2CC[C@@H](F)[C@@H](N)C2)n1` [Example 83, 5-[(2R,6S)-2-methyl-6-[[4-[6-methyl-2-[(3S,4R)-3-amino-4-fluoro-1-piperidyl]-pyrimidin-4-yl]piperazin-1-yl]methyl]morpholin-4-yl]quinoline-8-carbonitrile], for which the IC50 came out at 32 nM.
